Source: patent US9656988B2 (Pharmacyclics LLC, priority 2013, dated 2017)
Read-outs that look alike come from different tables or passages of the source.

Target: BTK (Homo sapiens (Human), UniProt Q06187)
Experiment: Btk in vitro inhibitory activity (one of Method A TR-FRET, Method B electrophoretic mobility shift, Method C radiometric filter binding)
Type: biochemical
[1] = determined using one of the methods of Example 355a, 355b and 355c, read-out: BTK IC50

Sequence of BTK (Q06187 whole entry): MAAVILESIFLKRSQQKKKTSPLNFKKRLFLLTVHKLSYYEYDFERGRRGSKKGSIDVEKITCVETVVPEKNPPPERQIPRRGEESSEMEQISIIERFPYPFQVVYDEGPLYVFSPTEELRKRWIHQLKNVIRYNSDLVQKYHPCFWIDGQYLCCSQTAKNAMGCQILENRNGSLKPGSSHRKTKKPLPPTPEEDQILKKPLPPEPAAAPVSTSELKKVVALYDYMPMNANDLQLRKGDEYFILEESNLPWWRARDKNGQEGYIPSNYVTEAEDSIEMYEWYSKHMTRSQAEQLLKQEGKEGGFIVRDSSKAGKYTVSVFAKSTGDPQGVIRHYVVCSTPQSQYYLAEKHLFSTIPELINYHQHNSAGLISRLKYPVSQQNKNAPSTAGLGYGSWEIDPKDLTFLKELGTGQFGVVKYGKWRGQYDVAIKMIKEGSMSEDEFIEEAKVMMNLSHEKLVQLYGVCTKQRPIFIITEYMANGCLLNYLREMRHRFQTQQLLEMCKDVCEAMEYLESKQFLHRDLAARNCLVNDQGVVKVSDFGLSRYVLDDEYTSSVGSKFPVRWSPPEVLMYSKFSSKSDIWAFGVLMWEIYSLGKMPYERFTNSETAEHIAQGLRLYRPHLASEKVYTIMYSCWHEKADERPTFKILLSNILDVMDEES

| Structure (SMILES) | IC50 [1] [nM] | IC50 (read-out: Btk (IC50)) [nM] | IC50 (Btk (IC50)) [nM] |
| --- | --- | --- | --- |
| CN(C)C(=O)N1CC[C@@H]2[C@H]1CCCN2c1cnc(C(N)=O)c(Nc2ccc(C3CCN(C4CCCC4)CC3)cc2)n1 (racemic) [Example 287, (3aR,7aR)-4-(5-carbamoyl-6-(4-(1-cyclopentylpiperidin-4-yl)phenylamino)pyrazin-2-yl)-N,N-dimethyloctahydro-1H-pyrrolo[3,2-b]pyridine-1-carboxamide] | 10 to 100 | 10 to 100 |  |
| NC(=O)c1ncc(N2CCC[C@@H]3[C@H]2CCN3C(=O)C2CC2)nc1Nc1ccc(C2CCN(C3CCCC3)CC2)cc1 (racemic) [Example 288, 3-(4-(1-cyclopentylpiperidin-4-yl)phenylamino)-5-((3aR,7aR)-1-(cyclopropanecarbonyl)dihydro-1H-pyrrolo[3,2-b]pyridin-4(2H,5H,6H,7H,7aH)-yl)pyrazine-2-carboxamide] | 10 to 100 | 10 to 100 |  |
| NC(=O)c1ncc(N2CC[C@H]3CCN[C@H]3C2)nc1Nc1ccc(C2CCN(C3CCCC3)CC2)cc1 (racemic) [Example 291] | 100 to 1000 |  |  |
| CN(C)C(=O)N1CC[C@@H]2CCN(c3cnc(C(N)=O)c(Nc4ccc(C5CCN(C6CCCC6)CC5)cc4)n3)C[C@@H]21 (racemic) [Example 292, (3aS,7aR)-6-(5-carbamoyl-6-(4-(1-cyclopentylpiperidin-4-yl)phenylamino)pyrazin-2-yl)-N,N-dimethyloctahydro-1H-pyrrolo[2,3-c]pyridine-1-carboxamide] | 10 to 100 |  | 10 to 100 |
| NC(=O)c1ncc(N2CC[C@H]3CCN(C(=O)C4CC4)[C@H]3C2)nc1Nc1ccc(C2CCN(C3CCCC3)CC2)cc1 (racemic) [Example 293, 3-(4-(1-cyclopentylpiperidin-4-yl)phenylamino)-5-((3aS,7aR)-1-(cyclopropanecarbonyl)tetrahydro-1H-pyrrolo[2,3-c]pyridin-6(2H,7H,7aH)-yl)pyrazine-2-carboxamide] | 10 to 100 | 10 to 100 |  |
| CC1[C@H](NC(=O)C2CC2)CCCN1c1cnc(C(N)=O)c(Nc2ccc(C3CCN(C4CCCC4)CC3)cc2)n1 (stereo in doubt) [Example 349, (R)-3-(4-(1-cyclopentylpiperidin-4-yl)phenylamino)-5-(3-(cyclopropanecarboxamido)-2-methylpiperidin-1-yl)pyrazine-2-carboxamide] | < 10 |  |  |
| CN(C(=O)c1ccc(C(C)(C)C)cc1)[C@@H]1CCCN(c2nnc(C(N)=O)c(Nc3ccc(C(=O)N4CCOCC4)cc3)n2)C1 [Example 3, (R)-3-(3-(4-tert-butyl-N-methylbenzamido)piperidin-1-yl)-5-(4-(morpholine-4-carbonyl)phenylamino)-1,2,4-triazine-6-carboxamide] | 10 to 100 |  |  |
| Cc1ccc(C(=O)N[C@@H]2CCCN(c3nnc(C(N)=O)c(Nc4ccc(C(=O)N5CCOCC5)cc4)n3)C2)cc1 [Example 4, (R)-3-(3-(4-methylbenzamido)piperidin-1-yl)-5-(4-(morpholine-4-carbonyl)phenylamino)-1,2,4-triazine-6-carboxamide] | < 10 |  |  |
| NC(=O)c1nnc(N2CCC[C@@H](NC(=O)c3ccccc3)C2)nc1Nc1ccc(C(=O)N2CCOCC2)cc1 [Example 5, (R)-3-(3-benzamidopiperidin-1-yl)-5-(4-(morpholine-4-carbonyl)phenylamino)-1,2,4-triazine-6-carboxamide] | < 10 |  |  |
| NC(=O)c1nnc(N2CCC[C@@H](NC(=O)c3ccc(C(F)(F)F)cc3)C2)nc1Nc1ccc(C(=O)N2CCOCC2)cc1 [Example 6, (R)-5-(4-(morpholine-4-carbonyl)phenylamino)-3-(3-(4-(trifluoromethyl)benzamido)piperidin-1-yl)-1,2,4-triazine-6-carboxamide] | < 10 |  |  |
| NC(=O)c1nnc(N2CCC[C@@H](NC(=O)c3ccc(Cl)cc3)C2)nc1Nc1ccc(C(=O)N2CCOCC2)cc1 [Example 8, (R)-3-(3-(4-chlorobenzamido)piperidin-1-yl)-5-(4-(morpholine-4-carbonyl)phenylamino)-1,2,4-triazine-6-carboxamide] | < 10 |  |  |
| NC(=O)c1nnc(N2CCC[C@@H](NC(=O)c3ccc(F)cc3)C2)nc1Nc1ccc(C(=O)N2CCOCC2)cc1 [Example 9, (R)-3-(3-(4-fluorobenzamido)piperidin-1-yl)-5-(4-(morpholine-4-carbonyl)phenylamino)-1,2,4-triazine-6-carboxamide] | < 10 |  |  |
| COc1ccc(C(=O)N[C@@H]2CCCN(c3nnc(C(N)=O)c(Nc4ccc(C(=O)N5CCOCC5)cc4)n3)C2)cc1 [Example 10, (R)-3-(3-(4-methoxybenzamido)piperidin-1-yl)-5-(4-(morpholine-4-carbonyl)phenylamino)-1,2,4-triazine-6-carboxamide] | < 10 |  |  |
| NC(=O)c1nnc(N2CCC[C@@H](NC(=O)c3ccc(C4CC4)cc3)C2)nc1Nc1ccc(C(=O)N2CCOCC2)cc1 [Example 11, (R)-3-(3-(4-cyclopropylbenzamido)piperidin-1-yl)-5-(4-(morpholine-4-carbonyl)phenylamino)-1,2,4-triazine-6-carboxamide] | < 10 |  |  |
| NC(=O)c1nnc(N2CCC[C@@H](NC(=O)c3ccccn3)C2)nc1Nc1ccc(C(=O)N2CCOCC2)cc1 [Example 12, (R)-5-(4-(morpholine-4-carbonyl)phenylamino)-3-(3-(picolinamido)piperidin-1-yl)-1,2,4-triazine-6-carboxamide] | < 10 |  |  |
| NC(=O)c1nnc(N2CCC[C@@H](NC(=O)c3ccncc3)C2)nc1Nc1ccc(C(=O)N2CCOCC2)cc1 [Example 14, (R)-3-(3-(isonicotinamido)piperidin-1-yl)-5-(4-(morpholine-4-carbonyl)phenylamino)-1,2,4-triazine-6-carboxamide] | < 10 |  |  |
| NC(=O)c1nnc(N2CCC[C@@H](NC(=O)c3nccs3)C2)nc1Nc1ccc(C(=O)N2CCOCC2)cc1 [Example 16, (R)—N-(1-(6-carbamoyl-5-(4-(morpholine-4-carbonyl)phenylamino)-1,2,4-triazin-3-yl)piperidin-3-yl)thiazole-2-carboxamide] | < 10 |  |  |
| NC(=O)c1nnc(N2CCC[C@@H](NC(=O)c3ccc(Cl)s3)C2)nc1Nc1ccc(C(=O)N2CCOCC2)cc1 [Example 17, (R)-3-(3-(5-chlorothiophene-2-carboxamido)piperidin-1-yl)-5-(4-(morpholine-4-carbonyl)phenylamino)-1,2,4-triazine-6-carboxamide] | < 10 |  |  |
| NC(=O)c1nnc(N2CCC[C@@H](NC(=O)C3CCOCC3)C2)nc1Nc1ccc(C(=O)N2CCOCC2)cc1 [Example 30, (R)-5-(4-(morpholine-4-carbonyl)phenylamino)-3-(3-(tetrahydro-2H-pyran-4-carboxamido)piperidin-1-yl)-1,2,4-triazine-6-carboxamide] | 10 to 100 |  |  |

Next, values leading:

| IC50 [1] [nM] | IC50 (read-out: Btk (IC50)) [nM] | IC50 (Btk (IC50)) [nM] | Structure (SMILES) |
| --- | --- | --- | --- |
| 10 to 100 |  |  | N#Cc1ccc(C(=O)N[C@@H]2CCCN(c3nnc(C(N)=O)c(Nc4ccc(C(=O)N5CCOCC5)cc4)n3)C2)cc1 [Example 7, (R)-3-(3-(4-cyanobenzamido)piperidin-1-yl)-5-(4-(morpholine-4-carbonyl)phenylamino)-1,2,4-triazine-6-carboxamide] |
| 10 to 100 |  |  | NC(=O)c1nnc(N2CCC[C@@H](NC(=O)c3cccnc3)C2)nc1Nc1ccc(C(=O)N2CCOCC2)cc1 [Example 13, (R)-5-(4-(morpholine-4-carbonyl)phenylamino)-3-(3-(nicotinamido)piperidin-1-yl)-1,2,4-triazine-6-carboxamide] |
| 10 to 100 |  |  | NC(=O)c1nnc(N2CCC[C@@H](NC(=O)c3ncccn3)C2)nc1Nc1ccc(C(=O)N2CCOCC2)cc1 [Example 15, (R)-5-(4-(morpholine-4-carbonyl)phenylamino)-3-(3-(pyrimidine-2-carboxamido)piperidin-1-yl)-1,2,4-triazine-6-carboxamide] |
| 10 to 100 |  |  | NC(=O)c1nnc(N2CCC[C@@H](NC(=O)c3ccn4ccnc4c3)C2)nc1Nc1ccc(C(=O)N2CCOCC2)cc1 [Example 20, (R)—N-(1-(6-carbamoyl-5-(4-(morpholine-4-carbonyl)phenylamino)-1,2,4-triazin-3-yl)piperidin-3-yl)imidazo[1,2-a]pyridine-7-carboxamide] |
| 10 to 100 |  |  | CC#CC(=O)N[C@@H]1CCCN(c2nnc(C(N)=O)c(Nc3ccc(C(=O)N4CCOCC4)cc3)n2)C1 [Example 23, (R)-3-(3-but-2-ynamidopiperidin-1-yl)-5-(4-(morpholine-4-carbonyl)phenylamino)-1,2,4-triazine-6-carboxamide] |
| 10 to 100 |  |  | CC(C)C(=O)N[C@@H]1CCCN(c2nnc(C(N)=O)c(Nc3ccc(C(=O)N4CCOCC4)cc3)n2)C1 [Example 24, (R)-3-(3-isobutyramidopiperidin-1-yl)-5-(4-(morpholine-4-carbonyl)phenylamino)-1,2,4-triazine-6-carboxamide] |
| 10 to 100 |  |  | NC(=O)c1nnc(N2CCC[C@@H](NC(=O)C3CC3)C2)nc1Nc1ccc(C(=O)N2CCOCC2)cc1 [Example 25, (R)-3-(3-(cyclopropanecarboxamido)piperidin-1-yl)-5-(4-(morpholine-4-carbonyl)phenylamino)-1,2,4-triazine-6-carboxamide] |
| 10 to 100 |  |  | N#CC1(C(=O)N[C@@H]2CCCN(c3nnc(C(N)=O)c(Nc4ccc(C(=O)N5CCOCC5)cc4)n3)C2)CC1 [Example 28, (R)-3-(3-(1-cyanocyclopropanecarboxamido)piperidin-1-yl)-5-(4-(morpholine-4-carbonyl)phenylamino)-1,2,4-triazine-6-carboxamide] |
| 10 to 100 |  |  | NC(=O)c1nnc(N2CCC[C@@H](NC(=O)C3CCCC3)C2)nc1Nc1ccc(C(=O)N2CCOCC2)cc1 [Example 29, (R)-3-(3-(cyclopentanecarboxamido)piperidin-1-yl)-5-(4-(morpholine-4-carbonyl)phenylamino)-1,2,4-triazine-6-carboxamide] |
| 10 to 100 |  |  | CN1CCC(C(=O)N[C@@H]2CCCN(c3nnc(C(N)=O)c(Nc4ccc(C(=O)N5CCOCC5)cc4)n3)C2)CC1 [Example 31, (R)-3-(3-(1-methylpiperidine-4-carboxamido)piperidin-1-yl)-5-(4-(morpholine-4-carbonyl)phenylamino)-1,2,4-triazine-6-carboxamide] |
